# Counter-ions that a name gives are not always drawn.
# Target: T1, histamine H3 receptor (Homo sapiens, UniProt Q9Y5N1)
# T1 construct: expressed in transfected cells; host or cells: CHO K1 cells carrying pSwitch, transfected with pGeneH3 and induced with mifepristone; clone 3H3; membrane preparation
# Experiment: Histamine H3 functional antagonist assay ([35S]GTPγS SPA on membranes)
# Type: biochemical
# Conditions: not given
# Protocol: A membrane preparation containing histamine H3 receptors may be prepared in accordance with the following procedures:
# Ligated DNA was transformed into competent DH5α E. coli host bacterial cells and plated onto Luria Broth (LB) agar containing Zeocin™ (an antibiotic which allows the selection of cells expressing the sh ble gene which is present on pGene and pSwitch) at 50 μg ml^−1. Colonies containing the religated plasmid were identified by restriction analysis. DNA for transfection into mammalian cells was prepared from 250 ml cultures of the host bacterium containing the pGeneH3 plasmid and isolated using a DNA preparation kit (Qiagen Midi-Prep) as per manufacturers guidelines (Qiagen).
# CHO K1 cells previously transfected with the pSwitch regulatory plasmid (InVitrogen) were seeded at 2×10e6 cells per T75 flask in Complete Medium, containing Hams F12 (GIBCOBRL, Life Technologies) medium supplemented with 10% v/v dialysed foetal bovine serum, L-glutamine, and hygromycin (100 μg ml^−1), 24 hours prior to use. Plasmid DNA was transfected into the cells using Lipofectamine plus according to the manufacturers guidelines (InVitrogen). 48 hours post transfection cells were placed into complete medium supplemented with 500 μg ml^−1 Zeocin™.
# 10-14 days post selection 10 nM Mifepristone (InVitrogen), was added to the culture medium to induce the expression of the receptor.
# Approximately 1×10e7 cells were examined for receptor expression by staining with a rabbit polyclonal antibody, 4a, raised against the N-terminal domain of the histamine H3 receptor, incubated on ice for 60 minutes, followed by two washes in sorting medium.
# Following two further washes with Sorting Medium, cells were filtered through a 50 μm Filcon™ (BD Biosciences) and then analysed on a FACS Vantage SE Flow Cytometer fitted with an Automatic Cell Deposition Unit. […] Positively stained cells were sorted as single cells into 96-well plates, containing Complete Medium containing 500 μg ml^−1 Zeocin™ and allowed to expand before reanalysis for receptor expression via antibody and ligand binding studies.
# All steps of the protocol are carried out at 4° C. and with pre-cooled reagents. The cell pellet is resuspended in 10 volumes of buffer A2 containing 50 mM N-2-hydroxyethylpiperazine-N′-2-ethanesulfonic acid (HEPES) (pH 7.40) supplemented with […] leupeptin (acetyl-leucyl-leucyl-arginal; Sigma L2884), 25 μg/ml bacitracin (Sigma B0125), 1 mM ethylenediamine tetra-acetic acid (EDTA), 1 mM phenylmethylsulfonyl fluoride (PMSF) and 2×10e-6M pepstain A (Sigma). The cells are then homogenised by 2×15 second bursts in a 1 litre glass Waring blender, followed by centrifugation at 500 g for 20 minutes. The supernatant is then spun at 48,000 g for 30 minutes. The pellet is resuspended in 4 volumes of buffer A2 by vortexing for 5 seconds, followed by homogenisation in a Dounce homogeniser (10-15 strokes). At this point the preparation is aliquoted into polypropylene tubes and stored at −70° C. […]
# The plate is then incubated on a shaker at room temperature for 30 minutes followed by centrifugation for 5 minutes at 1500 rpm. The plate is read between 3 and 6 hours after completion of centrifuge run in a Wallac Microbeta counter on a 1 minute normalised tritium count protocol. Data is analysed using a 4-parameter logistic equation. Basal activity used as minimum i.e. histamine not added to well.
# T1 sequence (Q9Y5N1 whole entry): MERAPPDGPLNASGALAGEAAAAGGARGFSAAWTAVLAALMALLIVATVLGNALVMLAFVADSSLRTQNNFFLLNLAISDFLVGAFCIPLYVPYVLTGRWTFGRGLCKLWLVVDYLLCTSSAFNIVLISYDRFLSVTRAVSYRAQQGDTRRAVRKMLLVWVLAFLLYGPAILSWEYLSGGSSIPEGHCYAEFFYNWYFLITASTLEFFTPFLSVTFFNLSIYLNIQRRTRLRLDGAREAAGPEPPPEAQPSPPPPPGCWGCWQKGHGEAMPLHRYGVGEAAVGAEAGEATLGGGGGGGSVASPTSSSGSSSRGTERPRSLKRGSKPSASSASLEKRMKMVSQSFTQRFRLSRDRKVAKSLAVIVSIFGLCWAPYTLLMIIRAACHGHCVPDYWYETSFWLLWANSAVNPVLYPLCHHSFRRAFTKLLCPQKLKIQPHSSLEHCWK
row,SMILES,Kb
1,"O=C(c1ccc(OCCCN2CCCCC2)cc1)N1CCN(C(=O)C2CCCCCC2)CC1 [Example E89, 1-[4-(3-Piperidin-1-ylpropoxy)benzoyl]-4-(cycloheptanecarbonyl)-piperazine Hydrochloride]",< 3.16 nM

# Same assay, conditions: membranes of CHO K1 clone 3H3 expressing human histamine H3; histamine 0.3 μM; guanosine 5'[γ35-S]thiotriphosphate 0.38 nM; read-out: pKb (converted)
row,Kb,SMILES
1,< 3.16 nM,"O=C(c1ccc(OCCCN2CCCCC2)cc1C(F)(F)F)N1CCCCC1 [Example E155, N-[2-Trifluoromethyl-4-(3-Piperidin-1-ylpropoxy)benzoyl]piperidine Hydrochloride]"
2,< 3.16 nM,"O=C(c1ccc(OCCCN2CCCCC2)cc1)N1CCN(C(=O)N2CCCC2)CC1 [Example E88, 1-[4-(3-Piperidin-1-ylpropoxy)benzoyl]-4-(pyrrolidine-1-carbonyl)-piperazine Hydrochloride]"
3,< 3.16 nM,"O=C(c1ccc(OCCCN2CCCCC2)cc1)N1CCCCC1 [Example E149, N-[4-(3-Piperidin-1-ylpropoxy)benzoyl]piperidine Hydrochloride]"
4,< 3.16 nM,"O=C(c1ccc(OCCCN2CCCCC2)cc1)N1CCN(C(=O)C2CCCCC2)CC1 [Example E57, 1-[4-(3-Piperidin-1-ylpropoxy)benzoyl]-4-(1-cyclohexanecarbonyl)-piperazine hydrochloride]"

# More lines, now with the values behind:
row,SMILES,Kb
1,"O=C(c1ccc(OCCCN2CCCCC2)cc1)N1CCN(c2ccccc2)CC1 [Example E1, N-[4-(3-Piperidin-1-ylpropoxy)benzoyl]-4-phenylpiperazine dihydrochloride]",< 3.16 nM
2,"O=C(c1ccc(OCCCN2CCCCC2)cc1)N1CCN(C(=O)c2cccs2)CC1 [Example E59, 1-[4-(3-Piperidin-1-ylpropoxy)benzoyl]-4-(thiophen-2-carbonyl)-piperazine Hydrochloride]",< 3.16 nM
3,"O=C1NC2(CCN(C(=O)c3ccc(OCCCN4CCCCC4)cc3)CC2)CN1Cc1ccccc1 [Example E160, 3-Benzyl-8-[4-(3-piperidin-1-ylpropoxy)benzoyl]-1,3,8-triaza-spiro[4.5]-decan-2-one]",< 3.16 nM
4,"O=C(N[C@H]1CCN(C(=O)c2ccc(OCCCN3CCCCC3)cc2)C1)c1cccc2ccccc12 [Example E158, (S)-N-[4-(3-Piperidin-1-ylpropoxy)benzoyl]-3-(naphthalene-1-carboxamidopyrrolidinedihydrochloride]",< 3.16 nM
5,C[C@@H]1CN(C(=O)c2ccc(OCCCN3CCCCC3)cc2)C[C@H](C)N1C(=O)c1ccccc1 [Example E100],< 3.16 nM
6,"O=C(c1ccc(OCCCN2CCCCC2)cc1)N1CCC2(CC1)CN(c1ccccc1)C(=O)CO2 [Example E159, 4-Phenyl-9-[4-(3-piperidin-1-ylpropoxy)benzoyl]-1-oxa-4,9-diazaspiro-[5,5]-undecan-3-one hydrochloride]",< 3.16 nM
7,"O=C(N[C@H]1CCN(C(=O)c2ccc(OCCCN3CCCCC3)cc2)C1)c1ccccc1 [Example E156, (S)-N-[4-(3-Piperidin-1-ylpropoxy)benzoyl]-3-benzamidopyrrolidine Dihydrochloride]",< 3.16 nM
